In patent US7625718B2, “SVCT2 transporters expressed in blood brain barrier cells” (XenoPort, Inc., priority 2005, dated 2009):

Experiments:
PgP = target: T1, PgP (Homo sapiens, UniProt P08183); assay: Transwell monolayer efflux assay in TREx-PgP MDCK cells; format: in vitro ADME
T1 construct: expressed in transfected cells; host or cells: MDCK cells, tetracycline-inducible
Description: Transwell monolayer efflux assays can be performed by transfecting MDCK cells with the tetracycline-inducible TREx-PgP expression vector. The cells optionally can be transfected with a nucleic acid encoding the transporter of interest. The transfected cells are seeded on polycarbonate filter membranes in transwell dishes and grown for 3-5 days, yielding a polarized monolayer with tight junctions between cells.

hSVCT2 [1] = target: T2, hSVCT2 (Homo sapiens, UniProt Q9UGH3); assay: hSVCT2 competition uptake assay in HEK-TREx-hSVCT2 cells; format: cell-based
T2 construct: expressed in transfected cells; host or cells: HEK-TREx cells, tetracycline-induced
T2 sequence (Q9UGH3 whole entry): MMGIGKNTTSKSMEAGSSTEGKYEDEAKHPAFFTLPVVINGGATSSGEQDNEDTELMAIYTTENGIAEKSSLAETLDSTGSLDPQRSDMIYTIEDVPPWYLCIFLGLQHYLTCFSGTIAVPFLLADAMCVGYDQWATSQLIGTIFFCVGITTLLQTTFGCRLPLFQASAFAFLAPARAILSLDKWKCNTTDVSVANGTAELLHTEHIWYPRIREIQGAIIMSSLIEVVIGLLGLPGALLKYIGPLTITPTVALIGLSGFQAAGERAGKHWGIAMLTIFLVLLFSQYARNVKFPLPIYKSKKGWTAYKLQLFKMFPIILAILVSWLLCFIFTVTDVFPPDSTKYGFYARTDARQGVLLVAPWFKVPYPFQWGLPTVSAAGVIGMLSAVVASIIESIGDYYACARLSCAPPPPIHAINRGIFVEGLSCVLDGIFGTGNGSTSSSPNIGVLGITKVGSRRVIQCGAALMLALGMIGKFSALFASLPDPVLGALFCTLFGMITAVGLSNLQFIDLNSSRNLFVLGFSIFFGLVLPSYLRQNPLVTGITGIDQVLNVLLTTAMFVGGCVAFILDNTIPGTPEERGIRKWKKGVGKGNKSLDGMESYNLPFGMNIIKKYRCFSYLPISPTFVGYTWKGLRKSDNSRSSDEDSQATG
Description: A modified competition uptake assay was developed to determine the ability of a test compound(s) to inhibit the uptake of radiolabeled substrates into […] induced to over-express hSVCT2. The results are stated as affinities (IC50). The competition uptake assay was prepared as follows: Compounds were prepared for assay by diluting a 100 mM stock concentration (in DMSO) to the appropriate working concentration. Typically, seven-point dose response curves were prepared starting at a final assay concentration of 1 mM and carrying out three-fold dilutions. […] Scintillation fluid (200 μl) (Optiphase Supermix (Perkin Elmer) was added to each well, and the plate was covered with a 96-well adhesive plate cover and placed on a shaker for 10 minutes. The plates were counted on a 96-well plate scintillation counter for 60 sec/well. The data were analyzed using a sigmoidal dose response curve-fitting program (Prism, GraphPad, Inc, San Diego, Calif.; equation: one-site competition). FIG. 2 depicts the results of a competition experiment using HEK-TREx-SVCT2 cells. ^3H-Ascorbic acid was used as the substrate and unlabeled ascorbic acid was used as the competitor. […] Non-specific uptake was determined by measuring the uptake into cells not induced to express the transporter (“no tet”). […]

hSVCT2 [2] = target: T2, hSVCT2; assay: hSVCT2 direct uptake assay in HEK-TREx-hSVCT2 cells (LC-MS-MS); format: cell-based; details: HEK-TREx-hSVCT2 cells induced to express hSVCT2
Description: A modified direct uptake assay was developed to determine the ability of test compounds to be transported into HEK-TREx cells induced to over-express hSVCT2. Four concentrations (bracketing the affinity as measured by competition assays) per compound were routinely tested. Non-specific uptake was determined by measuring the uptake into cells not induced to express the transporter (“no tet”).
The direct uptake assays were prepared as follows: Compounds were prepared for assay by diluting a 100 mM stock concentration (in DMSO or water, depending on compound solubility) to the appropriate working concentration. Typically, four concentrations bracketing the IC50 were tested. The highest test concentration for each compound was made in an Eppendorf tube and diluted into HBSS. The samples were robustly vortexed and centrifuged for 10 minutes at 13,200 rpm to spin down any precipitate. The supernatant from these samples (˜150 μl/well) was carefully removed and placed into six wells of row A (cmpd 1: A1-6; cmpd 2: A7-12) or row E (cmpd 3: E1-6; cmpd 4: E7-12) of a 96-well polypropylene “compound” plate. Three additional 2-fold dilutions were made in the subsequent rows (B-D or […]) in HBSS. […]

[3] = 2.5 nM, in the presence of 250 μM verapamil

T1 sequence (P08183 whole entry): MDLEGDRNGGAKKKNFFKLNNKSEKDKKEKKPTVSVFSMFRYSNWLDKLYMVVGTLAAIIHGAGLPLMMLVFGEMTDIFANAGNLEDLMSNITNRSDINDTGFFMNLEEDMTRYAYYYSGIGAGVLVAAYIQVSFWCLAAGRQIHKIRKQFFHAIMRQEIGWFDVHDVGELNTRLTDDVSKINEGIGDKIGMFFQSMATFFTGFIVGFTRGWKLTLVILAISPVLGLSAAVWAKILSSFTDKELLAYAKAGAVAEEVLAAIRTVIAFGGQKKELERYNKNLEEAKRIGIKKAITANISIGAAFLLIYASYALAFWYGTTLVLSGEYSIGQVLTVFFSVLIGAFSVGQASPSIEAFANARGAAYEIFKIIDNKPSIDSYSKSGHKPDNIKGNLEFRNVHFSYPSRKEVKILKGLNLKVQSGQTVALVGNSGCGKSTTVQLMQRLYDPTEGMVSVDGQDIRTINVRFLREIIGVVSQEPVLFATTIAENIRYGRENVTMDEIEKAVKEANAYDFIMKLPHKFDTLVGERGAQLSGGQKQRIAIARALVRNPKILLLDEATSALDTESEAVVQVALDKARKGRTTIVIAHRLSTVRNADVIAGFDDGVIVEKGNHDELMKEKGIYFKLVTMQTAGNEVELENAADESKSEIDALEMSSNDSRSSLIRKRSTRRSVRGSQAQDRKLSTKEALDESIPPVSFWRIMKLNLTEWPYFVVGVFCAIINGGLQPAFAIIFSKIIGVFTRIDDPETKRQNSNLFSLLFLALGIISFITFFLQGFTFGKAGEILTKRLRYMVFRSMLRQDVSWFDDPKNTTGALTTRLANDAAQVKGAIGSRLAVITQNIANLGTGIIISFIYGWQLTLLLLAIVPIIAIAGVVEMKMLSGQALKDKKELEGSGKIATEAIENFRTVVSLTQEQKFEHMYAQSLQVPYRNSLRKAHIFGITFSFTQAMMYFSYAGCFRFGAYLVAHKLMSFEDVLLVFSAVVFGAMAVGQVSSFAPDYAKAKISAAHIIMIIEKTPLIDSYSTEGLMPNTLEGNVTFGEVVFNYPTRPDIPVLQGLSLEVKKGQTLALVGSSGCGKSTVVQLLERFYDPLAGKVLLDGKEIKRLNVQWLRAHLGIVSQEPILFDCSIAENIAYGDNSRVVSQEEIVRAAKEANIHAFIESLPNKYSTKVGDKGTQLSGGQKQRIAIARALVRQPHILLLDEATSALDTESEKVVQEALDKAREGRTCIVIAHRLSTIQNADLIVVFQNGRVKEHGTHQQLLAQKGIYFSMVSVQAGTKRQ

Row | Compound | efflux transporter substrate status (PgP) | apical to basolateral transport (PgP; [3]) | basolateral to apical transport (PgP; [3]) | uptake of labeled ascorbic acid as concentration of unlabeled ascorbic acid increased (hSVCT2 [1]; cells induced to express SVCT2, ^3H-ascorbic acid substrate, FIG. 2) | IC50 (hSVCT2 [1]; inhibition of radiolabeled ascorbic acid uptake, HEK-TREx-hSVCT2 cells induced to express hSVCT2) | Direct Uptake Vmax (hSVCT2 [2])
1 | CC[C@]1(O)C[C@@H]2CN(CCc3c([nH]c4ccccc34)[C@@](C(=O)OC)(c3cc4c(cc3OC)N(C)[C@H]3[C@@](O)(C(=O)OC)[C@H](OC(C)=O)[C@]5(CC)C=CCN6CC[C@]43[C@@H]65)C2)C1 [^3H-vinblastine] | substrate of PgP | strongly increased | strongly decreased | – | – | –
2 | O=C1O[C@H]([C@@H](O)CO)C(O)=C1O [Ascorbic Acid] | – | – | – | decreased | 55 µM | 21 pmol/min/well
